The values below come from patent US8101386B2, “Escherichia coli strains which over-produce L-threonine and processes for the production of L-threonine by fermentation” (Archer Daniels Midland Company, priority 2000, dated 2012).

The test system of test [1] is E. coli. The conditions noted are these: G. Nass et al. 1969; cited from earlier work.
Test [2] has as its target threonyl tRNA-synthetase (Escherichia coli, UniProt P0A8M3). The conditions noted are these: G. Nass et al. 1969; cited from earlier work.
In test [3] the test system is E. coli strain G909. Briefly: CPCA resistance test: growth in minimal medium E with CPCA. The settings on record: 24 hr, 36° C. It is filed as cell-based. Here is the method: (§1) To test for CPCA resistance, each strain was cultivated in 20 ml of the seed medium SM (32.5 g/L glucose; 1 g/L MgSO4 7H2O; 24.36 g/L K2HPO4; 9.52 g/L KH2PO4; 5 (NH4)2SO4; 15 g/L yeast extract; pH 7.2) at 36° C. for 17 hr with shaking. The cells were harvested and washed with minimal medium E. The cell suspension was then inoculated into a sterilized tube containing 3 ml of minimal medium E and 0, 0.1, 0.5, or 1 mM CPCA. After 24 hr cultivation as 36° C. with shaking, growth was determined by measuring the optical density at 660 nm. The results are shown below in Table 1 relative to growth in the absence of CPCA.

In test [4] the test system is E. coli strain 6-8. The test is described as above. It is filed as cell-based. Also noted: unit not given here. The settings on record: 24 hr, 36° C. Here is the method:
as §1

threonyl tRNA-synthetase, sequence (P0A8M3 whole entry): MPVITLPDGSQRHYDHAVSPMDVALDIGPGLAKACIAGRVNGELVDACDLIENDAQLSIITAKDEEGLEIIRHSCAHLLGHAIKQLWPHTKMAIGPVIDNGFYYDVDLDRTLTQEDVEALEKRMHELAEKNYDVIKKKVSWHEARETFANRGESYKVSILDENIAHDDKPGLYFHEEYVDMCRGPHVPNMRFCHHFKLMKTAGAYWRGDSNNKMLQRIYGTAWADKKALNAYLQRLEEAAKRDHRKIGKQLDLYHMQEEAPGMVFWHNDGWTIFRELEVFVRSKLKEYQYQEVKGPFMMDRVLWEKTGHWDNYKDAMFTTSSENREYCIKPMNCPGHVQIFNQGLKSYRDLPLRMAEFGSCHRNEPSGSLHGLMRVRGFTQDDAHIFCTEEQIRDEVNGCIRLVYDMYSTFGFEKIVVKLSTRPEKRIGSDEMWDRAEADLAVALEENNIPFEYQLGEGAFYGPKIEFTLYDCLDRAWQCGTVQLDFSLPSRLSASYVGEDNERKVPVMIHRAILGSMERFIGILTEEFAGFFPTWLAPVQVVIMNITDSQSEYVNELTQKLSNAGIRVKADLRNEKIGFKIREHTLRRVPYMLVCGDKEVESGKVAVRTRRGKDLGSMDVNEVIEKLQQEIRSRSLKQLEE

On to `C[C@@H]1C[C@H](C)C[C@H](C)[C@@H](O)CC(=O)O[C@H]([C@@H]2CCC[C@H]2C(=O)O)C/C=C/C=C(/C#N)[C@H](O)[C@@H](C)C1` [borrelidin], for which the “effect on growth of E. coli” value in test [1] is “inhibit the growth”. Moreover, the “effect on enzymatic activity of threonyl tRNA-synthetase” value in test [2] is on record as “reduce the enzymatic activity”.
For the molecule `O=C(O)C1CCCC1` [CPCA, cyclopentanecarboxylic acid], the “growth (optical density at 660 nm) relative to growth in the absence of CPCA” value in test [3] (0.1 mM CPCA) is reported as 24.2; in test [3] (0.5 mM CPCA), 2.9; in test [3] (1 mM CPCA), 0.9; in test [4] (0.1 mM CPCA), 134.5; in test [4] (0.5 mM CPCA), 141.0; in test [4] (1 mM CPCA), 184.5.
